Source: patent US20240336654A1, “ANTIMICROBIAL PEPTIDOMIMETICS” (SPEXIS AG, priority 2021, published 2024)
Where a SMILES comes first, the peptide text is derived from it. Bridges are numbered along the chain shown (N, C = ends). [ ]: non-standard residue; d: D form. The star is where a group is joined. Val(Nα-amidino) = CC(C)[C@H](NC(=N)N)C(=O)*; Hyp = O=C(O)[C@@H]1C[C@@H](O)CN1; Cit = NC(=O)NCCC[C@H](N)C(=O)O; Pen = CC(C)(S)[C@H](N)C(=O)O; dDab = NCC[C@@H](N)C(=O)O; Orn = NCCC[C@H](N)C(=O)O; Dab = NCC[C@H](N)C(=O)O

Legend:
Format in all cases: cell-based
[1] = system: Escherichia coli ATCC 25922; details: ATCC 25922
Procedure, shortened: (§1)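 MICs were determined by CLSI broth microdilution in cation-adjusted Mueller-Hinton II broth with about 5×10^5 CFU/mL inoculum. Peptides were tested in two-fold serial dilutions with 0.002% polysorbate 80 final. MIC in μg/mL is the lowest concentration with no visible growth after 18-20 h at 35 °C.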

[2] = system: Escherichia coli MCR-1 Af 45; details: MCR-1 Af 45
Procedure, shortened: as §1

[3] = system: Klebsiella pneumoniae SSI3010; details: SSI3010
Procedure, shortened: as §1

[4] = system: human red blood cells (hRBC); details: red cells of human, 1 h, 200 μg/mL
Procedure, shortened: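 Percent hemolysis derived from OD540 of supernatants relative to full lysis by 2.5% Triton X-100 (PBS baseline). Washed fresh human erythrocytes (20% v/v) were exposed to 200 μg/mL peptide for 1 h at 37 °C with shaking.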

SMILES	Escherichia coli ATCC 25922 MIC [1]	Escherichia coli MCR-1 Af45 MIC [2]	Klebsiella pneumoniae SSI3010 MIC [3]	Hemolysis at 0.2 g/L [4]
CC[C@H](C)[C@H](NC(=O)[C@@H]1C[C@@H](O)CN1C(=O)[C@@H](NC(=N)N)C(C)C)C(=O)N[C@@H]1C(=O)N[C@@H](Cc2ccc(O)cc2)C(=O)N[C@@H](CCCNC(N)=O)C(=O)N[C@@H](CC(N)=O)C(=O)N[C@@H](CCCNC(=N)N)C(=O)N[C@@H](CCN)C(=O)N[C@@H]([C@@H](C)O)C(=O)N[C@H](CCN)C(=O)N[C@@H](CO)C(=O)N[C@@H](CCN)C(=O)N[C@@H](CCN)C(=O)N[C@H](C(=O)N[C@@H](Cc2ccc(O)cc2)C(=O)O)CSSC1(C)C [Example 122, Gua-Val-Hyp-Ile-Pen-Tyr-Cit-Asn-Arg-Dab-Thr-^DDab-Ser-Dab-Dab-Cys-Tyr] ({Val(Nα-amidino)}-[Hyp]I[Pen]Y[Cit]NR[Dab]T[dDab]S[Dab][Dab]CY-OH; disulfide 3-14)	0.125 µg/mL	0.25 µg/mL	0.25 µg/mL	<1%
CC[C@H](C)[C@H](NC(=O)[C@@H]1C[C@@H](O)CN1C(=O)[C@@H](NC(=N)N)C(C)C)C(=O)N[C@@H]1C(=O)N[C@@H](Cc2ccc(O)cc2)C(=O)N[C@@H](CO)C(=O)N[C@@H](CC(N)=O)C(=O)N[C@@H](CCCNC(=N)N)C(=O)N[C@@H](CCN)C(=O)N[C@@H]([C@@H](C)O)C(=O)N[C@H](CCN)C(=O)N[C@@H](CCCN)C(=O)N[C@@H](CCN)C(=O)N[C@@H](CCN)C(=O)N[C@H](C(=O)N[C@@H](Cc2ccc(O)cc2)C(=O)O)CSSC1(C)C [Example 126, Gua-Val-Hyp-Ile-Pen-Tyr-Ser-Asn-Arg-Dab-Thr-^DDab-Orn-Dab-Dab-Cys-Tyr] ({Val(Nα-amidino)}-[Hyp]I[Pen]YSNR[Dab]T[dDab][Orn][Dab][Dab]CY-OH; disulfide 3-14)	0.125 µg/mL	0.03125 µg/mL	0.125 µg/mL	<1%
CC[C@H](C)[C@H](NC(=O)[C@@H]1C[C@@H](O)CN1C(=O)[C@@H](NC(=N)N)C(C)C)C(=O)N[C@@H]1C(=O)N[C@@H](Cc2ccc(O)cc2)C(=O)N[C@@H]([C@@H](C)O)C(=O)N[C@@H](CC(N)=O)C(=O)N[C@@H](CCCNC(=N)N)C(=O)N[C@@H](CCN)C(=O)N[C@@H]([C@@H](C)O)C(=O)N[C@H](CCN)C(=O)N[C@@H](CCCN)C(=O)N[C@@H](CCN)C(=O)N[C@@H](CO)C(=O)N[C@H](C(=O)N[C@@H](Cc2ccc(O)cc2)C(=O)O)CSSC1(C)C [Example 128, Gua-Val-Hyp-Ile-Pen-Tyr-Thr-Asn-Arg-Dab-Thr-^DDab-Orn-Dab-Ser-Cys-Tyr] ({Val(Nα-amidino)}-[Hyp]I[Pen]YTNR[Dab]T[dDab][Orn][Dab]SCY-OH; disulfide 3-14)	0.125 µg/mL	0.125 µg/mL	0.25 µg/mL	<1%
CC[C@H](C)[C@H](NC(=O)[C@@H]1C[C@@H](O)CN1C(=O)[C@@H](NC(=N)N)C(C)C)C(=O)N[C@@H]1C(=O)N[C@@H](Cc2ccc(O)cc2)C(=O)N[C@@H](CCN)C(=O)N[C@@H](CC(N)=O)C(=O)N[C@@H](CCCNC(=N)N)C(=O)N[C@@H](CCN)C(=O)N[C@@H]([C@@H](C)O)C(=O)N[C@H](CCN)C(=O)N[C@@H](CCCN)C(=O)N[C@@H]([C@@H](C)O)C(=O)N[C@@H](CO)C(=O)N[C@H](C(=O)N[C@@H](Cc2ccc(O)cc2)C(=O)O)CSSC1(C)C [Example 130, Gua-Val-Hyp-Ile-Pen-Tyr-Dab-Asn-Arg-Dab-Thr-^DDab-Orn-Thr-Ser-Cys-Tyr] ({Val(Nα-amidino)}-[Hyp]I[Pen]Y[Dab]NR[Dab]T[dDab][Orn]TSCY-OH; disulfide 3-14)	0.125 µg/mL	0.125 µg/mL	0.25 µg/mL	<1%
CC[C@H](C)[C@H](NC(=O)[C@@H]1C[C@@H](O)CN1C(=O)[C@@H](NC(=N)N)C(C)C)C(=O)N[C@@H]1C(=O)N[C@@H](Cc2ccc(O)cc2)C(=O)N[C@@H]([C@@H](C)O)C(=O)N[C@@H](CC(N)=O)C(=O)N[C@@H](CCCNC(=N)N)C(=O)N[C@@H](CCN)C(=O)N[C@@H]([C@@H](C)O)C(=O)N[C@H](CCN)C(=O)N[C@@H](CCCCN)C(=O)N[C@@H](CCN)C(=O)N[C@@H]([C@@H](C)O)C(=O)N[C@H](C(=O)N[C@@H](Cc2ccc(O)cc2)C(=O)O)CSSC1(C)C [Example 131, Gua-Val-Hyp-I-Pen-Tyr-Thr-Asn-Arg-Dab-Thr-^DDab-Lys-Dab-Thr-Cys-Tyr] ({Val(Nα-amidino)}-[Hyp]I[Pen]YTNR[Dab]T[dDab]K[Dab]TCY-OH; disulfide 3-14)	0.25 µg/mL	0.125 µg/mL	0.5 µg/mL	<1%

Now from value to compound, other results behind:

Escherichia coli ATCC 25922 MIC [1]	Escherichia coli MCR-1 Af45 MIC [2]	Klebsiella pneumoniae SSI3010 MIC [3]	SMILES	Hemolysis at 0.2 g/L [4]
0.0625 µg/mL	0.03125 µg/mL	0.0625 µg/mL	CC[C@H](C)[C@H](NC(=O)[C@@H]1C[C@@H](O)CN1C(=O)[C@@H](NC(=N)N)C(C)C)C(=O)N[C@@H]1C(=O)N[C@@H](Cc2ccc(O)cc2)C(=O)N[C@@H]([C@@H](C)O)C(=O)N[C@@H](CC(N)=O)C(=O)N[C@@H](CCCNC(=N)N)C(=O)N[C@@H](CCN)C(=O)N[C@@H]([C@@H](C)O)C(=O)N[C@H](CCN)C(=O)N[C@@H](CCN)C(=O)N[C@@H](CCN)C(=O)N[C@@H](CCN)C(=O)N[C@H](C(=O)N[C@@H](Cc2ccc(O)cc2)C(=O)O)CSSC1(C)C [Example 123, Gua-Val-Hyp-Ile-Pen-Tyr-Thr-Asn-Arg-Dab-Thr-^DDab-Dab-Dab-Dab-Cys-Tyr] ({Val(Nα-amidino)}-[Hyp]I[Pen]YTNR[Dab]T[dDab][Dab][Dab][Dab]CY-OH; disulfide 3-14)	<1%
0.03125 µg/mL	0.03125 µg/mL	0.125 µg/mL	CC[C@H](C)[C@H](NC(=O)[C@@H]1C[C@@H](O)CN1C(=O)[C@@H](NC(=N)N)C(C)C)C(=O)N[C@@H]1C(=O)N[C@@H](Cc2ccc(O)cc2)C(=O)N[C@@H]([C@@H](C)O)C(=O)N[C@@H](CC(N)=O)C(=O)N[C@@H](CCCNC(=N)N)C(=O)N[C@@H](CCN)C(=O)N[C@@H]([C@@H](C)O)C(=O)N[C@H](CCN)C(=O)N[C@@H](CCCN)C(=O)N[C@@H](CCN)C(=O)N[C@@H](CCN)C(=O)N[C@H](C(=O)N[C@@H](Cc2ccc(O)cc2)C(=O)O)CSSC1(C)C [Example 124, Gua-Val-Hyp-Ile-Pen-Tyr-Thr-Asn-Arg-Dab-Thr-^DDab-Orn-Dab-Dab-Cys-Tyr] ({Val(Nα-amidino)}-[Hyp]I[Pen]YTNR[Dab]T[dDab][Orn][Dab][Dab]CY-OH; disulfide 3-14)	<1%
0.125 µg/mL	0.03125 µg/mL	0.125 µg/mL	CC[C@H](C)[C@H](NC(=O)[C@@H]1C[C@@H](O)CN1C(=O)[C@@H](NC(=N)N)C(C)C)C(=O)N[C@@H]1C(=O)N[C@@H](Cc2ccc(O)cc2)C(=O)N[C@@H](CO)C(=O)N[C@@H](CC(N)=O)C(=O)N[C@@H](CCCNC(=N)N)C(=O)N[C@@H](CCN)C(=O)N[C@@H]([C@@H](C)O)C(=O)N[C@H](CCN)C(=O)N[C@@H](CCN)C(=O)N[C@@H](CCN)C(=O)N[C@@H](CCN)C(=O)N[C@H](C(=O)N[C@@H](Cc2ccc(O)cc2)C(=O)O)CSSC1(C)C [Example 125, Gua-Val-Hyp-Ile-Pen-Tyr-Ser-Asn-Arg-Dab-Thr-^DDab-Dab-Dab-Dab-Cys-Tyr] ({Val(Nα-amidino)}-[Hyp]I[Pen]YSNR[Dab]T[dDab][Dab][Dab][Dab]CY-OH; disulfide 3-14)	<1%
0.125 µg/mL	0.0625 µg/mL	0.25 µg/mL	CC[C@H](C)[C@H](NC(=O)[C@@H]1C[C@@H](O)CN1C(=O)[C@@H](NC(=N)N)C(C)C)C(=O)N[C@@H]1C(=O)N[C@@H](Cc2ccc(O)cc2)C(=O)N[C@@H]([C@@H](C)O)C(=O)N[C@@H](CC(N)=O)C(=O)N[C@@H](CCCNC(=N)N)C(=O)N[C@@H](CCN)C(=O)N[C@@H]([C@@H](C)O)C(=O)N[C@H](CCN)C(=O)N[C@@H](CCN)C(=O)N[C@@H](CCN)C(=O)N[C@@H](CO)C(=O)N[C@H](C(=O)N[C@@H](Cc2ccc(O)cc2)C(=O)O)CSSC1(C)C [Example 127, Gua-Val-Hyp-Ile-Pen-Tyr-Thr-Asn-Arg-Dab-Thr-^DDab-Dab-Dab-Ser-Cys-Tyr] ({Val(Nα-amidino)}-[Hyp]I[Pen]YTNR[Dab]T[dDab][Dab][Dab]SCY-OH; disulfide 3-14)	<1%
0.125 µg/mL	0.125 µg/mL	0.5 µg/mL	CC[C@H](C)[C@H](NC(=O)[C@@H]1C[C@@H](O)CN1C(=O)[C@@H](NC(=N)N)C(C)C)C(=O)N[C@@H]1C(=O)N[C@@H](Cc2ccc(O)cc2)C(=O)N[C@@H](CCN)C(=O)N[C@@H](CC(N)=O)C(=O)N[C@@H](CCCNC(=N)N)C(=O)N[C@@H](CCN)C(=O)N[C@@H]([C@@H](C)O)C(=O)N[C@H](CCN)C(=O)N[C@@H](CCN)C(=O)N[C@@H]([C@@H](C)O)C(=O)N[C@@H](CO)C(=O)N[C@H](C(=O)N[C@@H](Cc2ccc(O)cc2)C(=O)O)CSSC1(C)C [Example 129, Gua-Val-Hyp-Ile-Pen-Tyr-Dab-Asn-Arg-Dab-Thr-^DDab-Dab-Thr-Ser-Cys-Tyr] ({Val(Nα-amidino)}-[Hyp]I[Pen]Y[Dab]NR[Dab]T[dDab][Dab]TSCY-OH; disulfide 3-14)	<1%
